Assay results as given in patent US20240383908A1, “SYNTHESIS AND APPLICATION OF PHOSPHATASE DEGRADER” (HINOVA PHARMACEUTICALS INC., priority 2021, published 2024).

The molecules below were run against T1, SHP2 protein (Homo sapiens, UniProt Q06124) (assay: Degradation activity on SHP2 protein in MV-411 cells (Western blot, DC50)). Settings: MV411 cells, 24 hours, read-out: Degradation activity for differenct cell lines MV411 (DC50).
T1 sequence (Q06124 1-593): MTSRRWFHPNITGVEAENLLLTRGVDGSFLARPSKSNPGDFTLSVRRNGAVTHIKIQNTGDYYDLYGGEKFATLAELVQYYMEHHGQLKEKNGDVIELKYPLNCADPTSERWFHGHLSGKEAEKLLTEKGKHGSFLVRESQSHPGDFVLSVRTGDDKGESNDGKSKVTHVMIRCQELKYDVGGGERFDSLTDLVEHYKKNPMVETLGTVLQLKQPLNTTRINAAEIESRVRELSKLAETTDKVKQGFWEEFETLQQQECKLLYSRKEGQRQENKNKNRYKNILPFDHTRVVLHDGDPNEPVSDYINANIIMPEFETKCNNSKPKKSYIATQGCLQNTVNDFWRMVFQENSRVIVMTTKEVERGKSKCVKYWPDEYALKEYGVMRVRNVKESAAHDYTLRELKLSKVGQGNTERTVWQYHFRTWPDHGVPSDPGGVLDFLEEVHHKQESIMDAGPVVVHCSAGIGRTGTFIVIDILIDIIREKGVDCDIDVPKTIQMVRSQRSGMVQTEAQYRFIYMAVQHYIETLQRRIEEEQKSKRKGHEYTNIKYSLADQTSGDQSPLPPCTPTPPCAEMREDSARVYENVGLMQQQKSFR
Assay type: cell-based
Parameters: endogenous in cells
Method: • MV-411 cell line (COBIER, CBP-60522) • FBS (GEMINI, Cat. No. 900-108) • 0.01M PBS (Biosharp, Cat. No. 162262) • IMDM (Hyclone, Cat. No. SH30228.01) • Penicillin-Streptomycin (Gibco, Cat. No. 15140122) • DMSO (Sigma, Cat. No. D5879) • Centrifuge Tube, 15 ml (Excell Bio, Cat. No. CS015-0001) • Cell Culture Dish, (WHB, Cat. No. CS016-0128) • 12-well cell culture cluster (Corning, Cat. No. 3513) • RIPA lysate buffer (Thermo, Cat. No. 89900) • Protein Loding Buffer (Beyotime, Cat. No. P0015L) • BCA Protein Assay Kit (EpiZyme, Cat. No. ZJ102) • SDS-PAGE Fast Preparation Kit (EpiZyme, Cat. No. PG112) • Anti-GAPDH (14C10) Rabbit mAb (CST, Cat. No. 2118L) • Anti-SHP2 rabbit mAb (CST, Cat. No. 37525) • Peroxidase Affinipure (HRP) Goat Anti-Rabbit IgG (Zen Bioscience, Cat. No. 511203) • TBST (Biosharp, Cat. No. BL601A) • ECL chemiluminescence kit (4A Biotech, Cat. No. 4AW011-200)
• (1) Cell culture medium: IMIDM medium+10% FBS+1% Pen Strep; • (2) PBS buffer: PBS powder was dissolved in 2 L of ultrapure water and sterilized; • (3) Cell lysate: RIPA lysate buffer is added with protease inhibitors at a ratio of 1:1000 before use.
(1) MV-411 cells were cultured in the cell culture medium, and then well-growing cells were selected and inoculated in a 12-well plate, with 1 mL/well and 1×10^6 cells/well. The plate was incubated overnight in a 5% CO2 cell incubator at 37° C.
(2) 10 mM storage solution of each drug was prepared using dimethylsulfoxide (DMSO). The stock solution was diluted gradually with DMSO before use, and then 1 μL of the compound solution was added to the cell culture well (to ensure that the DMSO concentration in the culture system was […]), so that the final drug concentration is 100 nM, 10 nM, 3 nM, 1 nM, 0.3 nM, and 0.1 nM. Two wells were set for each concentration. The plate was gently shaken and mixed. Additionally, negative control wells (containing an equal amount of DMSO) and positive control wells were included.
(3) After 24 hours of cultivation, the cells were lysed using RIPA cell lysate, and the proteins were extracted. The protein concentration was measured using a BCA assay kit. 5× concentrated protein buffer was loaded, heated at 100° C. for 5 min, and then the sample was stored at −20° C.
(4) For each well, 30 μg of protein was loaded to polyacrylamide gel for electrophoresis.
(5) The protein was transferred from polyacrylamide gel to PVDF membrane, and sealed at room temperature with 5% skimmed milk for 1 h, which was then incubated with the primary antibodies (Anti-SHP2 rabbit mAb and Anti-GAPDH rabbit mAb) at 4° C. overnight. The membrane was washed three times with TBST solution, 10 minutes for each time. After that, the membrane was incubated with the secondary antibodies (horseradish peroxidase labeled goat anti-rabbit IgG) at room temperature for 2 h, and then washed three times with TBST solution, 10 minutes for each time, followed by exposure.
(6) The images were analyzed with Image J grayscale, and the degradation ratio of protein bands in the test group was calculated, based on the negative control group (DMSO) (100%).
(7) Using the Dose-response-inhibition equation in the data processing software GraphPad Prism 8, the DC50 value was obtained (which represents the drug concentration corresponding to 50% degradation of the target protein).
Finally, ECL detection solution was added for color development, and photos were taken with an automatic chemiluminescence instrument, so as to collect images and analyze them.

Structure (SMILES)	DC50 [nM]
Cc1ncsc1-c1ccc([C@H](C)NC(=O)[C@@H]2C[C@@H](O)CN2C(=O)[C@@H](NC(=O)CCCCCCCCCCN2CCC(C(=O)Nc3cccc(Sc4cnc(N5CCC(C)(N)CC5)cn4)c3)CC2)C(C)(C)C)cc1 [Compound 36]	> 1000
Cc1ncsc1-c1ccc([C@H](C)NC(=O)[C@@H]2C[C@@H](O)CN2C(=O)[C@@H](NC(=O)CCCCCCCCCCCC(=O)Nc2cccc(Sc3cnc(N4CCC(C)(N)CC4)cn3)c2)C(C)(C)C)cc1 [Compound 58]	100 to 1000
NC1(CO)CCN(c2cnc(Sc3cccc(NC(=O)CCCCCCN4CC5(CCN(c6ccc(C(=O)NCc7ccc8c(c7)CN(C7CCC(=O)NC7=O)C8=O)nn6)C5)C4)c3)cn2)C1 (stereo not shown) [Compound 198]	> 1000
CC1(N)CCN(c2cnc(Sc3cccc(NC(=O)CCC(=O)N4CC5(CN(CCCCCCCC(=O)NCc6ccc7c(c6)CN(C6CCC(=O)NC6=O)C7=O)C5)C4)c3)cn2)CC1 (stereo not shown) [Compound 31]	> 1000
CC1(N)CCN(c2cnc(Sc3cccc(NC(=O)C4CN(CCCCCCCCCCC(=O)NCc5ccc6c(c5)CN(C5CCC(=O)NC5=O)C6=O)C4)c3)cn2)CC1 (stereo not shown) [Compound 43]	> 1000
CC1(N)CCN(c2cnc(Sc3cccc(NC(=O)CCCCC(=O)Nc4cccc5c4CN(C4CCC(=O)NC4=O)C5=O)c3)cn2)CC1 (stereo not shown) [Compound 1]	> 1000
NCC1(O)C2CCC1CN(c1cnc(Sc3cccc(NC(=O)CCCCCCN4CC5(CCN(c6ccc(C(=O)NCc7ccc8c(c7)CN(C7CCC(=O)NC7=O)C8=O)nn6)C5)C4)c3)cn1)C2 (stereo not shown) [Compound 204]	> 1000
CC1(N)CCN(c2cnc(Sc3cccc(NC(=O)CCCCCCCN4CCN(c5ncc(C(=O)NCc6ccc7c(c6)CN(C6CCC(=O)NC6=O)C7=O)cn5)CC4)c3)cn2)CC1 (stereo not shown) [Compound 72]	< 100
CC1(CN)CCN(c2cnc(Sc3cccc(NC(=O)CCC(=O)N4CCN(CCCCCCCCC(=O)Nc5ccc6c(c5)CN(C5CCC(=O)NC5=O)C6=O)CC4)c3Cl)cn2)CC1 (stereo not shown) [Compound 14]	< 100
CN(Cc1ccc2c(c1)CN(C1CCC(=O)NC1=O)C2=O)C(=O)c1ccc(N2CC3CC(OCCCCCCC(=O)Nc4cccc(Sc5cnc(N6CCC(C)(N)CC6)cn5)c4)CC3C2)nn1 (stereo not shown) [Compound 184]	< 100

Results, then the molecule that gave them:

DC50 [nM]	Structure (SMILES)
< 100	CC1(N)CCN(c2cnc(Sc3cccc(NC(=O)CCCCCN4CC5(CCN(c6ccc(C(=O)NCc7ccc8c(c7)CN(C7CCC(=O)NC7=O)C8=O)nn6)C5)C4)c3)cn2)CC1 (stereo not shown) [Compound 164]
< 100	Cc1ncsc1-c1ccc([C@H](C)NC(=O)[C@@H]2C[C@@H](O)CN2C(=O)[C@@H](NC(=O)COCCOCCOCCOCC(=O)Nc2cccc(Sc3cnc(N4CCC(C)(N)CC4)cn3)c2)C(C)(C)C)cc1 [Compound 12]
< 100	CC1(N)CCN(c2cnc(Sc3cccc(NC(=O)CCCCN4CC5(CCN(c6ccc(C(=O)NCc7ccc8c(c7)CN(C7CCC(=O)NC7=O)C8=O)nn6)C5)C4)c3)cn2)CC1 (stereo not shown) [Compound 145]
< 100	CN(Cc1ccc2c(c1)CN(C1CCC(=O)NC1=O)C2=O)C(=O)c1ccc(N2CC[C@@H](OCCCCCCCC(=O)Nc3cccc(Sc4cnc(N5CCC(C)(N)CC5)cn4)c3)[C@@H](F)C2)nn1 (stereo partly shown) [Compound 163]
< 100	CN(Cc1ccc2c(c1)CN(C1CCC(=O)NC1=O)C2=O)C(=O)c1ccc(N2CCC3(CN(CCCCCCC(=O)Nc4cccc(Sc5cnc(N6CCC(C)(N)CC6)cn5)c4)C3)C2)nn1 (stereo not shown) [Compound 152]
< 100	CC1(N)CCN(c2cnc(Sc3cccc(NC(=O)CCC(=O)N4CCN(CCCCCCCCC(=O)NCc5ccc6c(c5)CN(C5CCC(=O)NC5=O)C6=O)CC4)c3)cn2)CC1 (stereo not shown) [Compound 27]
< 100	CC1(N)CCN(c2cnc(Sc3cccc(NC(=O)CCCCCCCN4CC5CN(Cc6ccc(COc7cccc8c7CN(C7CCC(=O)NC7=O)C8=O)cc6)CC5C4)c3)cn2)CC1 (stereo not shown) [Compound 95]
< 100	CC1(N)CCN(c2cnc(Sc3cccc(NC(=O)CCCCCCCOC4CCN(c5ncc(C(=O)Nc6ccc7c(c6)CN(C6CCC(=O)NC6=O)C7=O)cn5)CC4)c3)cn2)CC1 (stereo not shown) [Compound 93]
< 100	CC1(N)CCN(c2cnc(Sc3cccc(NC(=O)CCN4CC5(CCN(c6ncc(C(=O)NCc7ccc8c(c7)CN(C7CCC(=O)NC7=O)C8=O)cn6)C5)C4)c3)cn2)CC1 (stereo not shown) [Compound 65]
